Assay results taken from ChEMBL document CHEMBL5321272 (J Med Chem, 2023).
Activity calls are given as the source filed them. The rule behind the calls is not given here.

Legend:
[1] = Acute toxicity in ICR mouse assessed as morphological changes in lungs at 300 mg/kg, ig and measured for 7 days by Hematoxylin-Eosin staining based analysis; assay type: organism-based; conditions: in vivo, po, 168 h, time 7 day
[2] = Half life in ICR mouse at 10 mg/kg, po; assay type: ADME, organism-based; conditions: in vivo
[3] = Toxicity against nu/nu mouse xenografted with human MV4-11 cells assessed as body weight changes at 1 to 3 mg/kg, po qd for 22 days; assay type: organism-based; conditions: in vivo, 528 h, dose 1-3 mg/kg, time 22 day
[4] = molecular target: Receptor-type tyrosine-protein kinase FLT3 (Homo sapiens) (UniProt P36888); assay: Inhibition of FLT3 in human MV4-11 cells assessed as inhibition of STAT5 phosphorylation at Tyr694 residue measured after 90 mins by western blot analysis; assay type: cell-based; conditions: dose 20-100 nM
Z-138 = assay: Antiproliferative activity against human Z138 cells assessed as reduction in cell viability incubated for 72 hrs by CellTiter 96 Aqueous One Solution Cell Proliferation Assay; assay type: functional, cell-based; conditions: Z-138, 72 h
[5] = molecular target: Casein kinase I isoform alpha (Homo sapiens, UniProt P48729); assay: Inhibition of CK1 alpha (unknown origin) by HTRF assay
Casein kinase I isoform alpha, sequence (P48729 whole entry, canonical isoform): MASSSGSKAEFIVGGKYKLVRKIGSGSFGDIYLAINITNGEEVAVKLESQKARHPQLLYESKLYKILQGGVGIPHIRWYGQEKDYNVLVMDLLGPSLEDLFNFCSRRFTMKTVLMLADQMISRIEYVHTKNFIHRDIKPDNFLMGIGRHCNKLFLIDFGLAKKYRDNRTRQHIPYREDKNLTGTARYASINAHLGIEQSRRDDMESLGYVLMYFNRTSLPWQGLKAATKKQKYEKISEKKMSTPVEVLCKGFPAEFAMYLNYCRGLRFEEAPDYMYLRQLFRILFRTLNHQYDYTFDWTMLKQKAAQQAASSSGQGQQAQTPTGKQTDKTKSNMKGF

[6] = Selectivity ratio of IC50 for AMPK alpha2beta1gamma1 (unknown origin) to IC50 for FLT3-ITD mutant (unknown origin)
[7] = Selectivity ratio of IC50 for TAK1 (unknown origin) to IC50 for FLT3-ITD mutant (unknown origin)
BaF3 = assay: Antiproliferative activity against mouse BaF3 cells harboring FLT3 D835F mutant assessed as reduction in cell viability incubated for 72 hrs by CellTiter 96 Aqueous One Solution Cell Proliferation Assay; assay type: functional, cell-based
[8] = Selectivity ratio of IC50 for BTK (unknown origin) to IC50 for FLT3-ITD mutant (unknown origin)
[9] = Selectivity ratio of IC50 for BLK (unknown origin) to IC50 for FLT3-ITD mutant (unknown origin)
[10] = Acute toxicity in ICR mouse assessed as body weight loss at 300 mg/kg, ig and measured for 7 days; assay type: organism-based; conditions: in vivo, po, 168 h, time 7 day
MOLM-13 [11] = assay: Antitumor activity against human MOLM-13 cells xenografted in NSG mouse assessed as animal's survival rate at 30 mg/kg, po qd for 26 days (reference value: 17 days); assay type: functional; conditions: time 26 day
[12] = Selectivity ratio of IC50 for CDK2 (unknown origin) to IC50 for FLT3-ITD mutant (unknown origin)
[13] = Acute toxicity in ICR mouse assessed as morphological changes in liver at 300 mg/kg, ig and measured for 7 days by Hematoxylin-Eosin staining based analysis; assay type: organism-based; conditions: in vivo, po, 168 h, time 7 day
[14] = molecular target: T1, Serine/threonine-protein kinase Chk1 (Homo sapiens) (UniProt O14757); assay: Inhibition of CHK1 in human MV4-11 cells assessed as upregulation of p21 protein expression measured after 90 mins by western blot analysis; assay type: cell-based; conditions: dose 50-200 nM
T1 sequence (whole entry): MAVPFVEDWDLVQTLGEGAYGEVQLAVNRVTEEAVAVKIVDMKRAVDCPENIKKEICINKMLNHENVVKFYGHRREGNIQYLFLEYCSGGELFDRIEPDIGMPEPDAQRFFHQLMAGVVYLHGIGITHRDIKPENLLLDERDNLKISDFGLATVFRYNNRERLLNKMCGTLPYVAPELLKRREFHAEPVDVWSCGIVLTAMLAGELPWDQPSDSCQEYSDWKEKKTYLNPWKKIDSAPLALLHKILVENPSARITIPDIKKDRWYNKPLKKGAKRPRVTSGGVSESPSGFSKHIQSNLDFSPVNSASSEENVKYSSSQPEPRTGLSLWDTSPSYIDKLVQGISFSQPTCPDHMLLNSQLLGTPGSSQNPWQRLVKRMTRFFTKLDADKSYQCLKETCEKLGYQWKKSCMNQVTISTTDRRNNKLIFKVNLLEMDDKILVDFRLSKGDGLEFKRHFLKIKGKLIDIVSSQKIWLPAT

[15] = Tmax in ICR mouse at 10 mg/kg, po; assay type: ADME, organism-based; conditions: in vivo
[16] = molecular target: Receptor-type tyrosine-protein kinase FLT3 (Homo sapiens) (UniProt P36888); assay: Inhibition of FLT3 in human MV4-11 cells assessed as inhibition of FLT3 phosphorylation measured after 90 mins by western blot analysis; assay type: cell-based; conditions: dose 20-100 nM
[17] = molecular target: Receptor-type tyrosine-protein kinase FLT3 (Homo sapiens) (UniProt P36888); assay: Inhibition of FLT3 in human MV4-11 cells assessed as inhibition of STAT5 phosphorylation at Tyr694 residue at 20 nM measured after 90 mins by western blot analysis; assay type: cell-based
[18] = molecular target: T1, Serine/threonine-protein kinase Chk1 (Homo sapiens); assay: Inhibition of CHK1 in human MV4-11 cells assessed as downregulation of c-Myc protein expression at 50 to 200 nM measured after 90 mins by western blot analysis; assay type: cell-based; conditions: dose 50-200 nM
[19] = molecular target: Ribosomal protein S6 kinase beta-1 (Homo sapiens, UniProt P23443); assay: Inhibition of P70S6K (unknown origin) by HTRF assay
Ribosomal protein S6 kinase beta-1, sequence (P23443 whole entry): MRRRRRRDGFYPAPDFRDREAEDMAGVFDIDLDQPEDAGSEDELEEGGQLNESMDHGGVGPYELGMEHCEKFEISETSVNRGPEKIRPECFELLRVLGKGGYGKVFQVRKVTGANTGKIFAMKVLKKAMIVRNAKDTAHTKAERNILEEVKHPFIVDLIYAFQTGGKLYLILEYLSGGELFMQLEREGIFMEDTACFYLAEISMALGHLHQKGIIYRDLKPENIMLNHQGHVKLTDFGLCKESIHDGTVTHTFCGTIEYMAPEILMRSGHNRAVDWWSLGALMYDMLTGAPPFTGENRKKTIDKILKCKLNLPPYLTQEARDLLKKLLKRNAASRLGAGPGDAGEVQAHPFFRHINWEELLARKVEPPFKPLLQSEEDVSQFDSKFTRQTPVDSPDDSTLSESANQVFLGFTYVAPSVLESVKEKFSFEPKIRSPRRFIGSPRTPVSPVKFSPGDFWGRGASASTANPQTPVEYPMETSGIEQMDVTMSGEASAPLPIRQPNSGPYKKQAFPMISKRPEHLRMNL

[20] = Selectivity ratio of IC50 for Aurora kinase A (unknown origin) to IC50 for FLT3-ITD mutant (unknown origin)
MOLM-13 [21] = assay: Antitumor activity against human MOLM-13 cells xenografted in NSG mouse assessed as prolongation of animal's survival at 15 mg/kg, po qd for 26 days; assay type: functional, organism-based; conditions: time 26.0 day
[22] = Selectivity ratio of IC50 for EPHA1 (unknown origin) to IC50 for FLT3-ITD mutant (unknown origin)
[23] = molecular target: Receptor-type tyrosine-protein kinase FLT3 (Homo sapiens, UniProt P36888, D835Y)
Description: Inhibition of FLT3 D835Y mutant (unknown origin) using peptide substrate TK-S and ATP as substrate incubated for 1 hr by HTRF assay

[24] = Selectivity ratio of IC50 for P70S6K (unknown origin) to IC50 for FLT3-ITD mutant (unknown origin)
MV4-11 [25] = assay: Antitumor activity against human MV4-11 cells xenografted in nu/nu mouse assessed as inhibition of tumor growth rate at 3 mg/kg, po qd for 22 days; assay type: functional; conditions: MV4-11, 528 h, time 22 day
[26] = Acute toxicity in ICR mouse assessed as animal's death at 300 mg/kg, ig and measured for 7 days; assay type: organism-based; conditions: in vivo, po, 168 h, time 7 day
[27] = Cmax in ICR mouse at 10 mg/kg, po; assay type: ADME, organism-based; design: dose 10 mg/kg, route po; conditions: in vivo
[28] = Selectivity ratio of IC50 for IGF1R (unknown origin) to IC50 for FLT3-ITD mutant (unknown origin)
[29] = Selectivity ratio of IC50 for inhibition of c-KIT (unknown origin) to IC50 for inhibition of FLT3 D835Y mutant (unknown origin)
[30] = molecular target: Receptor-type tyrosine-protein kinase FLT3 (Homo sapiens) (UniProt P36888); assay: Inhibition of FLT3 in human MV4-11 cells assessed as inhibition of ERK phosphorylation at Tyr204 residue measured after 90 mins by western blot analysis; assay type: cell-based; conditions: dose 20-100 nM
MV4-11 [31] = assay: Antitumor activity against human MV4-11 cells xenografted in nu/nu mouse assessed as inhibition of tumor growth administered orally qd for 22 days; assay type: functional; conditions: dose 1-3 mg/kg, route po, time 22.0 day
[32] = AUC (infinity) in ICR mouse at 10 mg/kg, po; assay type: ADME, organism-based; design: dose 10 mg/kg, route po; conditions: in vivo
[33] = Selectivity ratio of IC50 for JAK3 (unknown origin) to IC50 for FLT3-ITD mutant (unknown origin)

CC(C)(O)CC(=O)N1CCc2cc(Nc3ncc(C(F)(F)F)c(N[C@H]4CC[C@@H](N)CC4)n3)ccc2C1
Activity [1]: Non-Toxic
half-life [2]: 5.6 h
Activity [3]: Non-Toxic
inhibition [4]: Dose-Dependent Effect
IC50 (Z-138): 115 nM
IC50 [5]: > 10000 nM
Ratio IC50 [6]: > 100
Ratio IC50 [7]: > 100
Activity (BaF3): Active
Ratio IC50 [8]: > 100
Ratio IC50 [9]: > 100
Activity [10]: Non-Toxic
Survival (MOLM-13 [11]): 22 days
Ratio IC50 [12]: > 100
Activity [13]: Non-Toxic
inhibition [14]: Dose-Dependent Effect
Tmax [15]: 2 h
inhibition [16]: Dose-Dependent Effect
inhibition [17]: 100%
inhibition [18]: Active
IC50 [19]: 91.6 nM
Ratio IC50 [20]: > 100
Activity (MOLM-13 [21]): inactive
Ratio IC50 [22]: > 100
IC50 [23]: 1.08 nM
Ratio IC50 [24]: > 100
inhibition in vivo at 3 mg/kg (MV4-11 [25]): 52.8%
Activity [26]: Non-Toxic
Cmax [27]: 571 ng/mL
Ratio IC50 [28]: > 100
Ratio IC50 [29]: 1740
inhibition [30]: Dose-Dependent Effect
Activity (MV4-11 [31]): Dose-Dependent Effect
AUC(0-inf) [32]: 1660 ng·h/mL
Ratio IC50 [33]: > 100
